Results on five compounds are retold here after ChEMBL document CHEMBL2074489, “Human organic anion transporter 3 (hOAT3) can operate as an exchanger and mediate secretory urate flux” (Cell Physiol Biochem, 2003).

Data set [1] addresses T1, Organic anion transporter 3 (Homo sapiens, UniProt Q8TCC7).
T1 sequence (Q8TCC7 whole entry): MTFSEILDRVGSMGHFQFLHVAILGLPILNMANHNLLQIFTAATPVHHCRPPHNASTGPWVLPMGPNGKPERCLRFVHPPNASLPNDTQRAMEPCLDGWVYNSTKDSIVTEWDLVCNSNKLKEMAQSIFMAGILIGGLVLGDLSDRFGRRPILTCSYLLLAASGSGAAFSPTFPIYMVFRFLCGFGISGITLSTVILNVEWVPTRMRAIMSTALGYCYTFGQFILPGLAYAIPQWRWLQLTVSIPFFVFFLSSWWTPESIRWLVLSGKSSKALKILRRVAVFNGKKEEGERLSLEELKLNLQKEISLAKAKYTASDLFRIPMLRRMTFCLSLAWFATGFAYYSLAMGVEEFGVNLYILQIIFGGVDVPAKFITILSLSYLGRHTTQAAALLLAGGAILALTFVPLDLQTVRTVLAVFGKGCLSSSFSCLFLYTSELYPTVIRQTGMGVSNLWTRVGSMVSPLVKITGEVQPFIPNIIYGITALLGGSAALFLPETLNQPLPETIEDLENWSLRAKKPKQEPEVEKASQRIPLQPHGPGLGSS
Put plainly: TP_TRANSPORTER: trans-stimulation in Xenopus laevis oocytes. Type of data set: functional, cell-based. The note with it: oocyte.

Data set [2] has as its target T1, Organic anion transporter 3. The data set is described as follows: TP_TRANSPORTER: inhibition of Estrone sulfate in Xenopus laevis oocytes. Type of data set: functional, cell-based, Oocyte.

As for `O=C(O)CCC(=O)C(=O)O` [ALPHA-KETOGLUTARIC ACID], in data set [1], the Activity result was “substrate []”.

`Nc1ccc(C(=O)NCC(=O)O)cc1` [AMINOHIPPURIC ACID]: the Activity entry in data set [1] is “substrate []”. Turning to `CN/C(=N/CCSCc1nc[nH]c1C)NC#N` [CIMETIDINE], the Activity entry in data set [1] was “substrate []”. Same read-out and setting: for `O=C(O)CCCC(=O)O` [GLUTARATE] the value was “substrate []”. As a reminder, the Ki is the dissociation constant of the complex between target and ligand, obtained from inhibition or displacement. Higher therefore signals weaker binding. For the compound `O=c1[nH]c(=O)c2[nH]c(=O)[nH]c2[nH]1` [URIC ACID], the Activity entry in data set [1] was “substrate []”. For the same compound, the affinity in data set [2] corresponds to a Ki of 275 µM.
